# Source: patent publication US6949542B2, “Dihydro-benzo[b][1,4]diazepin-2-one derivatives” (Hoffman-La Roche Inc., priority 2002, dated 2005)
row,Compound,melting point [°C]
1,"Cc1ccncc1-c1cccc(C2=Nc3cc(OCC(F)(F)F)c(C(F)(F)F)cc3NC(=O)C2)c1 [Example 232, 4-[3-(4-Methyl-pyridin-3-yl)-phenyl]-7-(2,2,2-trifluoro-ethoxy)-8-trifluoromethyl-1,3-dihydro-benzo[b][1,4]diazepin-2-one]",198 to 200
2,"Cc1ccncc1-c1cccc(C2=Nc3cc(C)c(C(F)(F)F)cc3NC(=O)C2)c1 [Example 233, 7-Methyl-4-[3-(4-methyl-pyridin-3-yl)-phenyl]-8-trifluoromethyl-1,3-dihydro-benzo[b][1,4]diazepin-2-one]",205 to 207
3,"CCc1ncccc1-c1cccc(C2=Nc3cc(C)c(C(F)(F)F)cc3NC(=O)C2)c1 [Example 234, 4-[3-(2-Ethyl-pyridin-3-yl)-phenyl]-7-methyl-8-trifluoromethyl-1,3-dihydro-benzo[b][1,4]diazepin-2-one]",213
4,"CCOc1cc2c(cc1C(F)(F)F)NC(=O)CC(c1cccc(-c3cccnc3CC)c1)=N2 [Example 235, 7-Ethoxy-4-[3-(2-ethyl-pyridin-3-yl)-phenyl]-8-trifluoromethyl-1,3-dihydro-benzo[b][1,4]diazepin-2-one]",214
5,"CCc1ncccc1-c1cccc(C2=Nc3cc(OCC(F)(F)F)c(C(F)(F)F)cc3NC(=O)C2)c1 [Example 236, 4-[3-(2-Ethyl-pyridin-3-yl)-phenyl]-7-(2,2,2-trifluoro-ethoxy)-8-trifluoromethyl-1,3-dihydro-benzo[b][1,4]diazepin-2-one]",184
6,"Cc1ccc(-c2cccc(C3=Nc4cc(C)c(C(F)(F)F)cc4NC(=O)C3)c2)cn1 [Example 237, 7-Methyl-4-[3-(6-methyl-pyridin-3-yl)-phenyl]-8-trifluoromethyl-1,3-dihydro-benzo[b][1,4]diazepin-2-one]",235
7,"CCOc1cc2c(cc1C(F)(F)F)NC(=O)CC(c1cccc(-c3ccc(C)nc3)c1)=N2 [Example 238, 7-Ethoxy-4-[3-(6-methyl-pyridin-3-yl)-phenyl]-8-trifluoromethyl-1,3-dihydro-benzo[b][1,4]diazepin-2-one]",210
8,"Cc1ccc(-c2cccc(C3=Nc4cc(OCC(F)(F)F)c(C(F)(F)F)cc4NC(=O)C3)c2)cn1 [Example 239, 4-[3-(6-Methyl-pyridin-3-yl)-phenyl]-7-(2,2,2-trifluoro-ethoxy)-8-trifluoromethyl-1,3-dihydro-benzo[b][1,4]diazepin-2-one]",159
9,"Cc1cc(-c2cccc(C3=Nc4cc(F)c(C(F)(F)F)cc4NC(=O)C3)c2)cc(C)n1 [Example 240, 4-[3-(2,6-Dimethyl-pyridin-4-yl)-phenyl]-7-fluoro-8-trifluoromethyl-1,3-dihydro-benzo[b][1,4]diazepin-2-one]",251 to 252
10,"C=Cc1cc2c(cc1C(F)(F)F)NC(=O)CC(c1cccc(-c3cc(C)nc(C)c3)c1)=N2 [Example 241, 4-[3-(2,6-Dimethyl-pyridin-4-yl)-phenyl]-8-trifluoromethyl-7-vinyl-1,3-dihydro-benzo[b][1,4]diazepin-2-one]",225 to 226
11,"COCCOc1cc2c(cc1C(F)(F)F)NC(=O)CC(c1cccc(-c3ccnc(C)c3)c1)=N2 [Example 242, 7-(2-Methoxy-ethoxy)-4-[3-(2-methyl-pyridin-4-yl)-phenyl]-8-trifluoromethyl-1,3-dihydro-benzo[b][1,4]diazepin-2-one]",198 to 199
12,"COCCOc1cc2c(cc1C(F)(F)F)NC(=O)CC(c1cccc(-c3cc(C)nc(C)c3)c1)=N2 [Example 243, 4-[3-(2,6-Dimethyl-pyridin-4-yl)-phenyl]-7-(2-methoxy-ethoxy)-8-trifluoromethyl-1,3-dihydro-benzo[b][1,4]diazepin-2-one]",213 to 214
13,"C=Cc1cc2c(cc1C(F)(F)F)NC(=O)CC(c1cccc(-c3ccnc(C)c3)c1)=N2 [Example 244, 4-[3-(2-Methyl-pyridin-4-yl)-phenyl]-8-trifluoromethyl-7-vinyl-1,3-dihydro-benzo[b][1,4]diazepin-2-one]",200 to 201
14,"Cc1cc(C)c(-c2cccc(C3=Nc4cc(C)c(C(F)(F)F)cc4NC(=O)C3)c2)cn1 [Example 245, 4-[3-(4,6-Dimethyl-pyridin-3-yl)-phenyl]-7-methyl-8-trifluoromethyl-1,3-dihydro-benzo[b][1,4]diazepin-2-one]",218 to 219
15,"CCOc1cc2c(cc1C(F)(F)F)NC(=O)CC(c1cccc(-c3cnc(C4CC4)cc3C)c1)=N2 [Example 247, 4-[3-(6-Cyclopropyl-4-methyl-pyridin-3-yl)-phenyl]-7-ethoxy-8-trifluoromethyl-1,3-dihydro-benzo[b][1,4]diazepin-2-one]",202
16,"Cc1cc(C2CC2)ncc1-c1cccc(C2=Nc3cc(OCC(F)(F)F)c(C(F)(F)F)cc3NC(=O)C2)c1 [Example 248, 4-[3-(6-Cyclopropyl-4-methyl-pyridin-3-yl)-phenyl]-7-(2,2,2-trifluoro-ethoxy)-8-trifluoromethyl-1,3-dihydro-benzo[b][1,4]diazepin-2-one]",206

row,Compound,melting point [°C]
1,"CCOc1cc2c(cc1C(F)(F)F)NC(=O)CC(c1cccc(-c3cc(C)nc(CC)c3)c1)=N2 [Example 250, 7-Ethoxy-4-[3-(2-ethyl-6-methyl-pyridin-4-yl)-phenyl]-8-trifluoromethyl-1,3-dihydro-benzo[b][1,4]diazepin-2-one]",215
2,"CCc1cc(-c2cccc(C3=Nc4cc(OCC(F)(F)F)c(C(F)(F)F)cc4NC(=O)C3)c2)cc(C)n1 [Example 251, 4-[3-(2-Ethyl-6-methyl-pyridin-4-yl)-phenyl]-7-(2,2,2-trifluoro-ethoxy)-8-trifluoromethyl-1,3-dihydro-benzo[b][1,4]diazepin-2-one]",209
3,"CCOc1cc2c(cc1C(F)(F)F)NC(=O)CC(c1cccc(-c3cnc(C)cc3C)c1)=N2 [Example 252, 4-[3-(4,6-Dimethyl-pyridin-3-yl)-phenyl]-7-ethoxy-8-trifluoromethyl-1,3-dihydro-benzo[b][1,4]diazepin-2-one]",226 to 228
4,"Cc1cc(C)c(-c2cccc(C3=Nc4cc(OCC(F)(F)F)c(C(F)(F)F)cc4NC(=O)C3)c2)cn1 [Example 253, 4-[3-(4,6-Dimethyl-pyridin-3-yl)-phenyl]-7-(2,2,2-trifluoro-ethoxy)-8-trifluoromethyl-1,3-dihydro-benzo[b][1,4]diazepin-2-one]",176 to 180
5,"CCc1cc(C)c(-c2cccc(C3=Nc4cc(C)c(C(F)(F)F)cc4NC(=O)C3)c2)cn1 [Example 254, 4-[3-(6-Ethyl-4-methyl-pyridin-3-yl)-phenyl]-7-methyl-8-trifluoromethyl-1,3-dihydro-benzo[b][1,4]diazepin-2-one]",200
6,"CCOc1cc2c(cc1C(F)(F)F)NC(=O)CC(c1cccc(-c3cnc(CC)cc3C)c1)=N2 [Example 255, 7-Ethoxy-4-[3-(6-ethyl-4-methyl-pyridin-3-yl)-phenyl]-8-trifluoromethyl-1,3-dihydro-benzo[b][1,4]diazepin-2-one]",205
7,"CCc1cc(C)c(-c2cccc(C3=Nc4cc(OCC(F)(F)F)c(C(F)(F)F)cc4NC(=O)C3)c2)cn1 [Example 256, 4-[3-(6-Ethyl-4-methyl-pyridin-3-yl)-phenyl]-7-(2,2,2-trifluoro-ethoxy)-8-trifluoromethyl-1,3-dihydro-benzo[b][1,4]diazepin-2-one]",145 to 160
8,"Cc1cc(-c2cccc(C3=Nc4cc(C)c(C(F)(F)F)cc4NC(=O)C3)c2)cc(C2CC2)n1 [Example 257, 4-[3-(2-Cyclopropyl-6-methyl-pyridin-4-yl)-phenyl]-7-methyl-8-trifluoromethyl-1,3-dihydro-benzo[b][1,4]diazepin-2-one]",257
9,"CCOc1cc2c(cc1C(F)(F)F)NC(=O)CC(c1cccc(-c3cc(C)nc(C4CC4)c3)c1)=N2 [Example 258, 4-[3-(2-Cyclopropyl-6-methyl-pyridin-4-yl)-phenyl]-7-ethoxy-8-trifluoromethyl-1,3-dihydro-benzo[b][1,4]diazepin-2-one]",232
10,"Cc1cc(-c2cccc(C3=Nc4cc(OCC(F)(F)F)c(C(F)(F)F)cc4NC(=O)C3)c2)cc(C2CC2)n1 [Example 259, 4-[3-(2-Cyclopropyl-6-methyl-pyridin-4-yl)-phenyl]-7-(2,2,2-trifluoro-ethoxy)-8-trifluoromethyl-1,3-dihydro-benzo[b][1,4]diazepin-2-one]",200
11,"Cc1cc2c(cc1C(F)(F)F)NC(=O)CC(c1cccc(-c3cccnc3C)c1)=N2 [Example 260, 7-Methyl-4-[3-(2-methyl-pyridin-3-yl)-phenyl]-8-trifluoromethyl-1,3-dihydro-benzo[b][1,4]diazepin-2-one]",246
12,"Cc1cc(-c2cccc(C3=Nc4cc(CO)c(C(F)(F)F)cc4NC(=O)C3)c2)ccn1 [Example 261, 7-Hydroxymethyl-4-[3-(2-methyl-pyridin-4-yl)-phenyl]-8-trifluoromethyl-1,3-dihydro-benzo[b][1,4]diazepin-2-one]",218
13,"Cc1cc2c(cc1C(F)(F)F)NC(=O)CC(c1cccc(-c3ccnc(CC(C)C)c3)c1)=N2 [Example 262, 4-[3-(2-Isobutyl-pyridin-4-yl)-phenyl]-7-methyl-8-trifluoromethyl-1,3-dihydro benzo[b][1,4]diazepin-2-one]",209
14,"Cc1cc2c(cc1Cl)NC(=O)CC(c1cccc(-c3ccnc(C(F)(F)F)c3)c1)=N2 [Example 264, 8-Chloro-7-methyl-4-[3-(2-trifluoromethyl-pyridin-4-yl)-phenyl]-1,3-dihydro-benzo[b][1,4]diazepin-2-one]",247
15,"Cc1cc2c(cc1C(F)(F)F)NC(=O)CC(c1cccc(-c3ccnc(C(F)(F)F)c3)c1)=N2 [Example 265, 7-Methyl-8-trifluoromethyl-4-[3-(2-trifluoromethyl-pyridin-4-yl)-phenyl]-1,3-dihydro-benzo[b][1,4]diazepin-2-one]",247
16,"O=C1CC(c2cccc(-c3ccnc(C(F)(F)F)c3)c2)=Nc2cc(Cl)c(C(F)(F)F)cc2N1 [Example 266, 7-Chloro-8-trifluoromethyl-4-[3-(2-trifluoromethyl-pyridin-4-yl)-phenyl]-1,3-dihydro-benzo[b][1,4]diazepin-2-one]",229
